Where a SMILES comes first, the peptide text is derived from it. [ ]: non-standard residue; d: D form. Cya = N[CH](CS(=O)(=O)O)C(=O)O
Key:
[1] = system: amyloid precursor protein (APP); test: Experiment 4: accumulation of amyloid precursor protein in axons; type: in vivo, mice; conditions: spinal cord, day 30, anti-APP antibody
From the text: Spinal cord tissue taken from mice at day 30 was stained with a fluorescently-labeled anti-APP antibody.

[2] = system: calpain; test: Experiment 2: immunofluorescent staining for calpain, CD11b and CD45 in spinal cord white matter; type: in vivo; conditions: untreated versus CLA-treated EAE mice
Method: Expression of Calpain in Spinal Cord White Matter: Expression of calpain was determined in spinal cord tissues collected from all experimental and control groups of mice at the end of the experiment. Sections of paraformaldehyde-fixed tissues were stained with antibodies against calpain (FITC conjugated), CD11b (MΦ/microglia marker)(Texas Red-conjugated) and CD45 (leukocyte common antigen) (FITC-conjugated). Referring to FIG. 5, six 10 μm sections were stained with anti-calpain antibody and specific cell marker antibodies (CD45, CD11b). Positive staining for calpain (A, B, C); cells positive for MΦ/microglia marker (CD11b^+) (D, E, F); cells positive for leukocyte common antigen (CD 45^+)(G, H, I). 20× magnification. […] All leukocytes including MΦ, but not microglia, are stained with CD45.

[3] = system: spinal cord white matter of EAE mice; test: Experiment 2: Luxol Fast Blue staining, myelin content of spinal cord; type: in vivo; conditions: lumbar spinal cord, CLA-treated EAE mice
Method: Luxol Fast Blue (LFB) Staining of Spinal Cord Tissues: This staining method, which identifies changes in myelin content of CNS tissues, was performed as previously described (39). Six-10 μm tissue sections were prepared from the lumbar spinal cords of all mice at the end of the experiment. The sections were stained with LFB and counterstained with eosin and cresyl violet to observe changes in the myelin content of the control and treatment groups: A: CFA control; B: MOG/CFA immunized: C; MOG/CFA immunized and CLA-treated. 20× magnification. All myelin containing regions stain blue.

[4] = system: outer hair cells of the cochlea; test: Experiment 6: acoustic trauma, outer hair cell counts; type: in vivo, chinchillas; conditions: 7 mg/kg/day i.p. for seven days; as a function of distance from apex of cochlea
Method: (§1) Twelve chinchillas were divided into treatment and control groups (six animals each). The treatment groups received 7 mg/kg/day CLA i.p., for seven days. The control groups received an identical volume of PBS vehicle. Starting on day 0, all of the animals were exposed to a 105 decibel sound pressure level (SPL) noise with a frequency band centered on 4 kilohertz (kHz). The noise exposure lasted for 48 hours, ending two days after the beginning of the dose. Approximately 4 weeks after the noise exposure and dosing, the animals were anesthetized, tracheotimized, and placed upon a heating pad (37 degrees C.). A silver-ball electrode was attached to the round window of the left and right ears to record the compound action potential (CAP). CAP input functions were recorded at 0.5, 1, 2, 4, 8, 16 kHz tone burst levels generated by a digital-to-analog converter attached to a computer. The CAP threshold shift is the change in sound level required to generate an action potential at the electrode subsequent to noise exposure, and increases in the threshold shift reflect increased hearing loss. […] After the CAP threshold shifts were measured, the animals were decapitated, and the cochleae were removed. The hair cells from 11 cochleae were evaluated histologically. […] The numbers of outer hair cells (#OHC) were counted as a function of the distance from the apex of the cochlea. […]

[5] = system: chronic phase of EAE in C57BL/6J mice; test: Experiment 4: chronic phase EAE clinical scores; type: in vivo; conditions: 30 days
Method: (§2) Clinical evaluation: Mice were evaluated daily for clinical signs of disease for up to 19 days after inoculation. Clinical severity was assessed on a scale of 0-6 as follows: • […] abnormality • 1 ? mild hind limb weakness (some difficulty righting themselves when turned on their backs), sometimes associated with a weak or floppy tail. • 2 ? moderate hind limb weakness associated with a floppy tail. • 3 ? paralysis of hind limbs, sometimes more marked on one side, but no forelimb weakness. • 4 ? hind leg paralysis accompanied by forelimb weakness. • 5 ? quadriplegia; paralysis of both hind limbs and forelimbs. • 6 ? moribund or death.
The chronic phase of EAE occurs after the clinical score of an affected mouse reaches a plateau at the highest level of the acute phase of the disease. In this chronic phase, more extensive damage occurs to nerve axons, beyond the demyelination observed in the acute phase of the disease (22). EAE was induced in 7-8 week-old female C57BL/6J “mice” by subcutaneous (s.c.) injection in each flank with 100 μl of an emulsion containing […] Freund's Adjuvant supplemented with 500 μg heat inactivated mycobacterium tuberculosis (Sigma St. Louis, Mo.) and 300 μg MOG 35-55. 100 ng of Pertussis toxin (PT) was given intraperitoneally on days 0 and 2 post-immunization. […]

[6] = system: MOG aa35-55 induced EAE in C57BL/6J mice; test: Experiment 1: EAE clinical scores, CLA started at immunization; type: in vivo
Method: To induce EAE, 7-8 week-old female C57BL/6J mice (Jackson Laboratories, Bar Harbor, Md.) were used. Animals were housed according to IACUC regulations in an AAALAC certified facility. Each was injected subcutaneously (s.c.) at two sites on the flanks with 300 μg of myelin oligodendrocyte glycoprotein (MOG) peptide 35-55 in Complete Freund's Adjuvant (CFA) twice with a one week interval between injections, as previously reported (14). Pertussis toxin (PT) was given intraperitoneally on days 0 and 2 post-immunization. CLA was administered to 12 MOG/CFA immunized mice, i.p. at an initial dose of one mg/mouse, starting on the day of the second immunization, followed by 0.5 mg/mouse/day until the end of the experiment, which lasted 19 days. […]
as §2, with “death. […]” for “death.”

[7] = system: spinal cord axons of EAE mice; test: Experiment 4: axonal integrity by LFB staining; type: in vivo; conditions: day 30 post-immunization
From the text: Evaluation of axonal integrity using LFB staining: Spinal cord tissue was taken from mice at day 30 post-immunization, approximately 13 days into the chronic phase of EAE. Myelin is stained a blue color by LFB, and the appearance of a normal myelin-coated axon, taken from spinal cord tissue, is shown longitudinally in FIG. 8A.

[8] = system: chinchillas exposed to 105 decibel SPL noise; test: Experiment 6: acoustic trauma, compound action potential (CAP) threshold shift; type: in vivo; conditions: 7 mg/kg/day i.p. for seven days; about 4 weeks after noise exposure
Method: as §1

[9] = system: MOG aa35-55 induced EAE in C57BL/6J mice; test: Experiment 3: EAE clinical scores, CLA twice daily after disease process started; type: in vivo
Method: as §2
To induce EAE, mice were each inoculated once with MOG aa35-55 in Complete Freund's Adjuvant (CFA) and Pertussis toxin as previously described. Thirty 7 to 8-week-old female C57BL/6J mice (Jackson Laboratories, Bar Harbor, Mass.) were used in this experiment. […] Controls included two groups of 4 mice for CLA only and CFA/PT only and 4 were left as normal controls. CLA was dissolved in PBS and each mouse in the treatment group was injected i.p. with 200 μl of PBS containing 0.5 mg of CLA every 12 hours until the end of the experiment on day 25 pi. Mice were evaluated daily for clinical signs and symptoms of EAE and graded on a 0-6 scale for up to 25 days after inoculation as detailed above. Scores of asymptomatic mice (score=0) were included in the calculation of the daily mean clinical score for each group.

[10] = system: spinal cord white matter of EAE mice; test: Experiment 2: H&E staining, cellular infiltration of spinal cord white matter; type: in vivo; conditions: CLA-treated EAE mice, tissues at end of experiment
Method: Hematoxylin and Eosin Staining (H&E): H&E staining was used to show cellular infiltration of spinal cord white matter in mice with acute EAE in comparison with other groups of CFA control and CLA-treated EAE mice, as previously described (14). All staining was performed on tissues that were collected at the end of the experiment. In FIG. 3, 6-10 μm tissue sections were prepared from spinal cords of all mice at the end of the experiment. These tissues were stained with H&E to show inflammatory infiltration (indicated by arrows). A: CFA control; B: MOG/CFA immunized; C: MOG/CFA immunized and CLA-treated. 20× magnification.

[11] = Experiment 7: plasma and retina concentrations after oral CLA-acetal; type: in vivo, Sprague-Dawley rats; conditions: after 10 mg/kg oral CLA-acetal
Method: Male Sprague-Dawley rats (n=5 per time point, weight 200-250 g) were administer 10 mg/kg CLA-acetal by oral gavage, formulated as a 0.6% solution in phosphate-buffered saline. At 0.1, 0.25, 0.5, 1, 2, 4, 8, 12 and 24 hours, the rats were anesthetized, blood samples were collected, and the retinas were isolated. The plasma samples (200 μL) were treated with 1 mL methanol and centrifuged to remove protein. The supernatants from centrifugation were evaporated, and the residue was taken up in 0.02% aqueous ammonium heptafluorobutyrate (1 mL). The retina samples were homogenized, treated with methanol, centrifuged, and evaporated, and the residue was taken up in 0.02% aqueous ammonium heptafluorobutyrate (1 mL). The plasma and retinal concentrations of CLA and CLA-acetal were determined by liquid chromatography followed by turbo ion spray mass spectrometry on an MDS-Sciex API 4000 triple-quadropole mass spectrometer equipped with a turbo ion spray source. Elution peaks yielding ions corresponding to CLA or CLA-acetal were integrated and used to determine the amount of compound present, by reference to standards. Data reduction was performed using Sciex Analyst version 1.3 software. The peak concentrations (Cmax) were estimated from the concentrations of CLA measured over time.

[12] = system: EAE in rats; conditions: cited from earlier work
[13] = system: cochlear and vestibular hair; conditions: cited from earlier work
[14] = cited from earlier work
[15] = CLA 0.5 mg i.p. every 12 hours from day 7 pi
[16] = CLA twice daily started after signs of stage 2 EAE

CC(C)CC(NC(=O)C(N)CS(=O)(=O)O)C(=O)NC(C=O)CCCNC(=N)N (stereo not drawn) [CLA, cysteyl-leucyl-argininal] (H-[Cya]-Leu-Arg-aldehyde; configuration not given here)
accumulation of APP in axons [1]: reduces accumulation of APP
CD45+ cells (leukocytes) [2]: only marginally higher than CLA-treated EAE mice
expression of calpain in spinal cord white matter [2]: elevated in untreated EAE mice (FIG. 5B) as compared with CLA-treated EAE mice
presence of macrophages/microglia (CD11b+ cells) [2]: higher in untreated EAE mice (FIG. 5E) than CLA-treated EAE
demyelination (LFB staining) [3]: fewer areas of demyelination
numbers of outer hair cells (#OHC) [4]: increase in the number of outer hair cells at all distances from the apex
maximum clinical score ([5]; CLA 2 mg/mouse/day i.p. from day 7 (prior to onset)): below 0.5
maximum clinical score ([5]; CLA 2 mg/mouse/day i.p. from day 12 (after onset)): < 1.0
average clinical score (ACS) ([6]; MOG/CFA immunized mice, CLA i.p. one mg/mouse then 0.5 mg/mouse/day, scale 0-6, 19 days): 1.86
effect of CLA only or CFA/CLA on mice ([6]; control mice not immunized with MOG): no effect
axonal integrity (LFB staining) [7]: marked improvement in axonal integrity
CAP threshold shift [8]: decreased the CAP threshold shift
onset of signs of EAE [9, 15]: 15 day pi
severity of EAE symptoms [9, 15]: did not develop severe paralysis of the limbs
average clinical score (ACS) on day 17 pi [9, 16]: 1.60
clinical score on day 25 pi [9, 16]: less than two
clinical score on day 25 pi ([9]; D7 CLA-treated MOG/CFA mice): less than one
average clinical score (ACS) on day 17 pi ([9]; D7 CLA-treated MOG/CFA mice, 0.5 mg i.p. every 12 hours): 0.5
health of CLA only mice ([9]; control mice, CLA only): remained healthy
cellular infiltration and perivascular cuffing (H&E) [10]: moderate cellular infiltration and perivascular cuffing
concentrations in retina compared with plasma [11]: much higher in retina than in plasma

CC(=O)N[C@@H](CC(C)C)C(=O)N[C@@H](CC(C)C)C(=O)N[C@H](C=O)CCCNC(=N)N [leupeptin]
suppression of EAE [12]: suppressing EAE
protection from gentamycin ototoxicity [13]: protects cochlear and vestibular hair from gentamycin oxotoxicity
cellular permeability [14]: poor cellular permeability

From US7968516B2, “Treatment of multiple sclerosis and other autoimmune diseases by use of calpin inhibitors” (ProTor Pharma Corporation, priority 2004, dated 2011)
